Reference: publication PMC11393638 (Regulatory toxicology and pharmacology : RTP, 2023)
Marks after values point to notes of the source that are not given here.

How the values were obtained:
TK6 cells [1] = assay: TK and HPRT gene mutation assays in TK6 cells with hamster liver S9; conditions: 100 μM; 4-h treatment; TK6 cells with 1% hamster liver S9
TK6 cells [2] = assay: In vitro micronucleus assay in TK6 cells; conditions: 4-h (2% S9) and 24-h (0.4% S9) treatments
TK6 cells [3] = conditions: up to 10 mM; 1% rat liver S9; ref Liviac et al., 2011; cited from earlier work
TK6 cells [4] = conditions: 2% Aroclor-1254-induced rat liver S9; ref Bernacki et al., 2016; cited from earlier work
[5] = system: CYP2C19-expressing TK6 cells; assay: TK and HPRT gene mutation assays in CYP2C19-expressing TK6 cells; format: cell-based, human; conditions: 0.1 μg/mL (positive control), 4-h treatment
hamster V79 cells = conditions: without exogenous activation; ref Brambilla et al., 1989; cited from earlier work

With CCN(CC)N=O [NDEA, N-nitrosodiethylamine, reference compound] the “HPRT gene MF” value (TK6 cells [1]) was 23.1^c × 10^−6, the “Relative survival (%)” value (TK6 cells [1]) was 66.9% and the “TK gene MF” value (TK6 cells [1]) was 44.2^c × 10^−6. The “%MN frequency with hamster liver S9” value (TK6 cells [2]) was “induced MN”, the MN formation (TK6 cells [3]) was “did not induce MN formation” and the “Genotoxic or cytotoxic responses” value (TK6 cells [4]) was “failed to biotransform NDEA to produce any genotoxic or cytotoxic responses”.
With O=[N+]([O-])c1cc[n+]([O-])c2ccccc12 [4NQO, reference compound] the “HPRT gene MF” value [5] was 34.1^c × 10^−6, the “Relative survival (%)” value [5] was 59.9% and the “TK gene MF” value [5] was 69.2^c × 10^−6.
In the case of CN(N=O)C1=Nc2ccc(Cl)cc2C(c2ccccc2)=[N+]([O-])C1 [N-nitroso chlordiazepoxide], the HPRT mutations (hamster V79 cells) is listed as “induce concentration-dependent HPRT mutations”.
